US8901164B2, “Amphipathic and other double-sided alpha-helix mimetics based on a 1,2-diphenylacetylene scaffold” (University of Maryland, Baltimore, priority 2013, dated 2014)

Molecular target: Mcl-1-Bak-BH3 complex (Homo sapiens, UniProt Q07820)
Experiment: Antagonism of the Mcl-1-Bak-BH3 complex (preliminary studies)
Format: binding
Conditions: read-out: IC50 for antagonizing the Mcl-1-Bak-BH3 complex

Mcl-1-Bak-BH3 complex, sequence (Q07820 172-327 limits assumed, one chain of several): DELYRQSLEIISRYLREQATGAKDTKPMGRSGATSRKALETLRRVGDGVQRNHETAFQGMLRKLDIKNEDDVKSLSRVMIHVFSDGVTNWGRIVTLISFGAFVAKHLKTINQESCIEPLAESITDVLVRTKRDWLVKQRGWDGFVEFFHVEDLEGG

## CC(C)COc1ccc(C(=O)NCCN)c(C#Cc2cc(OCc3ccccc3)ccc2NC(=O)C(=O)O)c1OCC(C)C [Compound 14, 2-((2-((6-((2-Aminoethyl)carbamoyl)-2,3-diisobutoxyphenyl)ethynyl)-4-(benzyloxy)phenyl)amino)-2-oxoacetic acid]
  IC50: 3.24 ± 0.48 µM
